Here are results for 1 molecule from BindingDB's records for PubMed 9152366 (University of California San Francisco, 1997).

What is called Ki is the dissociation constant of the complex between target and ligand, obtained from inhibition or displacement.

Structures are written as SMILES. Several values for one entry are separate records, joined by “and”; a condition that tells them apart may be missing. Equal entries are not always repeated. Bridge positions count the residues as written; N and C are the ends. Square brackets hold non-standard residues; d marks the D form. Peptide text beside a SMILES is read from it. Nle = CCCC[C@H](N)C(=O)O

One assay has as its target T1, VIP peptides (Homo sapiens, UniProt P01282).
T1 sequence (P01282 whole entry): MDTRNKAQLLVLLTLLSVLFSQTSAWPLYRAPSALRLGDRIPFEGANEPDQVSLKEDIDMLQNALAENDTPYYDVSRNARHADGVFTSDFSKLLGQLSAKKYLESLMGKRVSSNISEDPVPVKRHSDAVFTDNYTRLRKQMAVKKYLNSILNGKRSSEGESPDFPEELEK

For assay [1], the target named is T2, Vasoactive intestinal polypeptide receptor 2 (Homo sapiens, UniProt P41587).
T2 sequence (P41587 whole entry): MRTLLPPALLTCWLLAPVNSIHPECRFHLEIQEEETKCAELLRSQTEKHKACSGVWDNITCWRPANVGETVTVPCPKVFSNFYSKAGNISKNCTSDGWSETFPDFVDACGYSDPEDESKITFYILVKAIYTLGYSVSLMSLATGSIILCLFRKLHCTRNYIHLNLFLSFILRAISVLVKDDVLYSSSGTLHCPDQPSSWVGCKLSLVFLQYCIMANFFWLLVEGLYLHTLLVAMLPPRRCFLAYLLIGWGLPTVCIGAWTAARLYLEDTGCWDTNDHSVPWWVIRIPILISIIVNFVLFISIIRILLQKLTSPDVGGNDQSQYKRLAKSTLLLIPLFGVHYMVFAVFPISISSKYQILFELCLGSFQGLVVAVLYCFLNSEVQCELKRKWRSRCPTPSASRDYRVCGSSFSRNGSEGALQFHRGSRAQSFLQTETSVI

Regarding `CCCC[C@H](NC(=O)[C@H](CCC(N)=O)NC(=O)[C@H](CCCCN)NC(=O)[C@H](CCCNC(=N)N)NC(=O)[C@H](CC(C)C)NC(=O)[C@H](CCCCN)NC(=O)[C@@H](NC(=O)[C@H](Cc1ccc(OC)cc1)NC(=O)[C@H](CC(N)=O)NC(=O)[C@H](CCC(=O)O)NC(=O)[C@@H](NC(=O)[C@H](Cc1ccccc1)NC(=O)[C@@H](NC(=O)[C@H](C)NC(=O)[C@H](CC(=O)O)NC(=O)[C@H](CO)NC(=O)[C@H](Cc1c[nH]cn1)NC(C)=O)C(C)C)[C@@H](C)O)[C@@H](C)O)C(=O)N[C@@H](C)C(=O)N[C@@H](C)C(=O)N[C@@H](CCCCN)C(=O)N[C@H]1CCCCNC(=O)C[C@@H](C(=O)N[C@@H](CC(C)C)C(=O)N[C@@H](CCCCN)C(=O)N[C@@H](CCCCN)C(N)=O)NC(=O)[C@H](CC(N)=O)NC(=O)[C@H](CC(C)C)NC(=O)[C@H](Cc2ccc(O)cc2)NC1=O` [CAS_150828-75-4] (Ac-HSDAVFTENY(Me)TKLRKQ[Nle]AAKKYLNDLKK-NH2; lactam 21-25), the Ki on VIP peptides was 3.4 nM; in assay [1] it was 16 nM and 9.6 nM.
